Assay results as given in publication PMC5432571 (Frontiers in Molecular Neuroscience, 2017).

Experiments:
α2 GlyR = target: T1, α2 GlyR (Homo sapiens, UniProt P23416); test: Whole-cell patch-clamp of glycine-induced currents, α2 GlyR expressed in CHO cells; type: cell-based; conditions: PTX 20 μM; glycine 30 μM; Vhold −30 mV
T1 construct: expressed in transfected cells; host or cells: CHO cells
T1 sequence (P23416 28-452 isoform P23416-2 limits assumed): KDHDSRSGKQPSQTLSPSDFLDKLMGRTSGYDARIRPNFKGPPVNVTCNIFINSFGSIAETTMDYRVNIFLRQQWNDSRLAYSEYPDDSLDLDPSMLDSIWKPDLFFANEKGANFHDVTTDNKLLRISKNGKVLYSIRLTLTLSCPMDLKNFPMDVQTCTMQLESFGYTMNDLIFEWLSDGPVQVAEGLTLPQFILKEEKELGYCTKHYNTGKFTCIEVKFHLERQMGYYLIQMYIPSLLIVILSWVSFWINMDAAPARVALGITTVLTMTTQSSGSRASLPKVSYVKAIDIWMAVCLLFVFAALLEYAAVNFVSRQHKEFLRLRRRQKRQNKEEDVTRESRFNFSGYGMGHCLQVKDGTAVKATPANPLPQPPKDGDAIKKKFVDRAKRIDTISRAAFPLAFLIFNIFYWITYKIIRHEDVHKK
Method: (§1) The experiments were carried out on cultured Chinese hamster ovary (CHO) cells obtained from the American Type Tissue Culture Collection (ATCC, Molsheim, France) that were maintained in culture conditions as previously described (Mukhtarov et al., [2013]; Maleeva et al., [2015]).
(§2) One day before transfection, cells were plated on the cover slips (12 mm in diameter) and placed inside 35-mm cell culture dishes with 2 ml of medium. Transfection was performed using the Lipofectamine 3000 protocol (Life Technology, USA). To facilitate identification of transfected cells a green fluorescent protein (GFP) was added to the transfection mixture. For expression of functional heteromeric receptors, cells were simultaneously transfected with cDNAs of α and β subunits in the ratio 1:10. Three hours after the initial exposure of cells to the cDNAs the culture medium was replaced with that containing strychnine (1 μM), which prevents spontaneous activation of GlyRs. Electrophysiological recordings were performed in the fluorescent cells 24–72 h after transfection.
(§3) Whole-cell and outside-out recordings were performed at room temperature (20–25°C) using an EPC-9 amplifier (HEKA Elektronik, Germany). Cells were continuously superfused with external solution containing (mM): NaCl 140, CaCl2 2, KCl 2.8, MgCl2 4, HEPES 20, glucose 10; pH 7.4; 320–330 mOsm. Intracellular solution used for filling recording patch pipettes contained (mM): CsCl 140, CaCl2 6, MgCl2 2, MgATP 2, NaGTP 0.4, HEPES/CsOH 10, BAPTA (tetrapotassium salt) 2; pH 7.3; 290 mOsm. Two different protocols of solutions application were used in this study. […] A “ramp protocol” implies the gradual change of Vhold alternately from −80 to +80 mV and from +80 to −80 mV during 1 s, Vhold was fixed at −80 or +80 mV at the beginning and at the end of the ramp for 500 ms (Figure 2B).
(§4) Recording pipettes were pulled from borosilicate glass capillaries (Harvard Apparatus Ltd, USA) and had resistances of 5–10 MOhm. For the rapid replacement of the solutions, the fast application system was used. Three parallel rectangular tubes (100 × 100 μm) were positioned 40–50 μm above the recorded cell. The movement of the tubes was controlled by a computer-driven fast exchange system (SF 77A Perfusion Fast-Step, Warner, USA) allowing a 10–90% solution exchange in 3–5 ms, as measured by open electrode controls (1/10 external solution/water). Cells with low input resistance (<150 MOhm) and a rapid run-down (>30% with repetitive application) were excluded from analysis.
(§5) Electrophysiological recordings were performed using PatchMaster (HEKA Electronic, Germany) software.
(§6) The fractional electrical distance from the external side of the membrane (δ) at which bound NFA blocked the current was calculated using the Woodhull equation: IC50(V)=IC50(0) exp (−δFV/RT), where IC50(V) is IC50 at the given membrane potential, IC50(0) – at 0 mV, V – membrane potential and F, R, T have their usual meanings. δ was determined from a plot of IC50 values against membrane potential.

α2β GlyR = target: T2, α2β GlyR (Homo sapiens, UniProt P23416+P48167); test: Whole-cell patch-clamp of glycine-induced currents, heteromeric α2β GlyR expressed in CHO cells; type: cell-based; conditions: PTX 20 μM; glycine 30 μM; Vhold −30 mV
T2 construct: expressed in transfected cells; host or cells: CHO cells
Method: as §1, §2, §3, §4, §5

α1β GlyR = target: T3, α1β GlyR (Homo sapiens, UniProt P23415+P48167); test: Whole-cell patch-clamp of glycine-induced currents, heteromeric α1β GlyR expressed in CHO cells; type: cell-based; conditions: PTX 20 μM; glycine 30 μM; Vhold −30 mV
T3 construct: expressed in transfected cells; host or cells: CHO cells
Method: as §1, §2, §3, §4, §5

homomeric α1 GlyR = target: T4, homomeric α1 GlyR (Homo sapiens, UniProt P23415); test: Whole-cell patch-clamp of glycine-induced currents, α1 GlyR expressed in CHO cells; type: cell-based; conditions: PTX 20 μM; glycine 30 μM; Vhold −30 mV
T4 construct: expressed in transfected cells; host or cells: CHO cells
T4 sequence (P23415 29-449 isoform P23415-2 limits assumed): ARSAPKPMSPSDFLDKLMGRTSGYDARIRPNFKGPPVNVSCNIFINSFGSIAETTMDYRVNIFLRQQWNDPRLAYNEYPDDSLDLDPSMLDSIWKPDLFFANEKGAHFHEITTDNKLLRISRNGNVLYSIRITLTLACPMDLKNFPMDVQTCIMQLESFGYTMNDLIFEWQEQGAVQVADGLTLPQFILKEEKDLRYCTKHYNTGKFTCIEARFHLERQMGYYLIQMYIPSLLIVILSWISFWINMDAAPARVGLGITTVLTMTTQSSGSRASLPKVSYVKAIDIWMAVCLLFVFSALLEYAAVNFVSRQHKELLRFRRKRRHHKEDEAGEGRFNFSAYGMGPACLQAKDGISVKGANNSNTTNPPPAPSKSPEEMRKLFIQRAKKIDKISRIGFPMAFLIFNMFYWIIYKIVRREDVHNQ
Method: as §1, §2, §3, §4, §5, §6

α2 GlyRs = conditions: read-out: mean value of EC50 for glycine; ref Maleeva et al., 2015; cited from earlier work

T2 sequence (P48167 23-497, one chain of several): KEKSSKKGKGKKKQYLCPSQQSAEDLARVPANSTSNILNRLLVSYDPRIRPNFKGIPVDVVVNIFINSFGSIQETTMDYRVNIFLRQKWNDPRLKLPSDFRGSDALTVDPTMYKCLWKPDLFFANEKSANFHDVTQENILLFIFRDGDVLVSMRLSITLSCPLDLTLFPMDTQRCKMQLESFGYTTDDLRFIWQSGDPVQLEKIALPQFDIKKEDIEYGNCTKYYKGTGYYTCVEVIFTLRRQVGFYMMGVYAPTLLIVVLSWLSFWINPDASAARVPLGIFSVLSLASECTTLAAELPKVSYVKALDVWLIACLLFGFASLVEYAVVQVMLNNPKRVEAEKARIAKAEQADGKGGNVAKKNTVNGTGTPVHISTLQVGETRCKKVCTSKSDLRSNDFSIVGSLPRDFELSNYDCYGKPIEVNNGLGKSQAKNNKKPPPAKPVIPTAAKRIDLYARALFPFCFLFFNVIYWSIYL
T3 sequence (P48167 23-497, one chain of several): as above

| Compound | amplitude of current, % of the control (α2 GlyR) [%] | current, % from the control (α2β GlyR) [%] | current, % from the control (α1β GlyR) [%] | amplitude of current, % of the control (homomeric α1 GlyR) [%] | EC50 (α2 GlyRs) [µM] |
| --- | --- | --- | --- | --- | --- |
| picrotoxin [PTX] | 3 ± 1 | 41 ± 4 | 75 ± 2 | 27 ± 3 | – |
| NCC(=O)O [glycine] | – | – | – | – | 42 ± 2 |
